These results are taken from patent publication US7910111B2, “Inhibitors of N-ethylmaleimide sensitive factor” (The Johns Hopkins University, priority 2003, dated 2011).

No end group written: not given here.

The subject of test [1] is human aortic endothelial cells (HAEC). Particulars: for effect on thrombin stimulated vWF release: HAEC pre-treated with reagent, thrombin 1 U/ml 1 h; for effect on thrombin induced vWF release, dose response: HAEC pre-treated with increasing amounts, DEA-NONOate 10 min, DETA-NONOate 16 h, SNAP 6 h, NEM 1 h, L-NAME 16 h; for effect of peptide on thrombin induced vWF release: HAEC incubated 20 min with peptide. The protocol: To explore the effect of NO upon granule exocytosis, thrombin induced exocytosis of Weibel-Palade bodies from human aortic endothelial cells (HAEC) which release von Willebrand's Factor (vWF) was studied. HAEC was pre-treated with an NO donor 2-(N,N-diethylamino)-diazenolate-2-oxide (DEA-NONOate) 10 mM or with DEA as a control, stimulated the cells with thrombin 1 U/ml for 1 h, and the amount of vWF released into the media was then measured. […] HAEC was then pre-treated with increasing amounts of various NO donors, including a rapidly releasing NO donor DEA-NONOate for 10 min, a slowly releasing NO donor DETA-NONOate for 16 h, or a nitrosothiol S-nitroso-penicillamine (SNAP) for 6 h; alternatively, cells were treated with NEM for 1 h.
The role of endogenous NO in the regulation of Weibel-Palade body exocytosis was then explored. HAEC was pre-treated with L-NAME for 16 h in order to inhibit endogenous NOS, and then the cells were stimulated with 1 U/ml thrombin for 1 h and vWF release was measured. […] HAEC was next pre-treated with vascular endothelial growth factor (VEGF) in order to activate endogenous NOS3. Cells were incubated with 50 ng/ml VEGF or control for 2 h, and then stimulated with thrombin.
A peptide inhibitor of NSF that crosses cell membranes was designed. This peptide, designated TAT-NSF222, includes the protein transduction domain of HIV TAT (residues 47-57) previously shown to transduce polypeptides into cells (Becker-Hapak et al., 2001), fused to a fragment of NSF (residues 222-243) previously shown to inhibit NSF (Schweizer et al., 1998). […] HAEC were then incubated for 20 min with TAT-NSF222, or with a control peptide TAT-NSF222scr that consisted of the intact TAT domain followed by the amino acid residues of NSF 222-243 in a scrambled order. HAEC were transduced with TAT-NSF peptides, treated with media or thrombin, and the amount of vWF released into the media was measured by ELISA.
Since NSF plays a general role in vesicle trafficking, permanent inactivation of NSF would slow vesicular trafficking in general. However, local production of NO at the plasma membrane and reversible nitrosylation of NSF could provide spatial regulation of NSF.
Human aortic endothelial cells (HAEC) and EGM-2 media were obtained from Clonetics (Walkersville, Md.). HAEC were pre-treated with NO donors, washed, stimulated with 1 U/mil of thrombin, and the amount of vWF released into the media was measured by an ELISA (American Diagnostica, Greenwich, Conn.). HAEC were permeabilized by incubation with 10 U/well of SLO (Sigma) in PBS pH 7.4 for 15 min at 37° C. (Walev et al., 2001). Some cells were incubated with 20-200 μg/ml of antibodies or with 100 μg/ml of recombinant NSF. Cells were then resealed by incubation with EGM-2 media for 4 h at 37° C., washed with EGM-2 media, and stimulated with thrombin as above.
The ability of TAT-NSF to affect exocytosis from cells was investigated. Endothelial cells release vWF by exocytosis when stimulated by thrombin. Accordingly, endothelial cells were incubated with increasing amounts of TAT-NSF peptides for 20 min, then treated with 1 U/ml thrombin, and the amount of vWF released into the media was measured by ELISA.
Human aortic endothelial cells (HAEC) and EGM-2 media were obtained from Clonetics (Walkersville, Md.). HAEC were pre-treated with TAT-NSF peptides for 20 min, washed, stimulated with 1 U/ml of thrombin, and the amount of vWF released into the media was measured by an ELISA (American Diagnostica, Greenwich, Conn.).

Test [2] has as its system mice. The test can be described thus: platelet adherence to mesenteric venules in mice (intravital microscopy). It is filed as in vivo. How it is done: To further examine the physiological relevance of NO regulation of Weibel-Palade body exocytosis, the effect of endogenous NO upon platelet interactions with endothelial cells in vivo was measured. Platelet rolling, or transient adherence of platelets to the walls of blood vessels, is mediated by vWF released by exocytosis (Andre et al., 2000). Inhibition of endogenous NO synthesis might permit an increase in Weibel-Palade body exocytosis, an increase in released vWF, and an increase in platelet adherence to venule walls. […] Intravital microscopy was next employed to explore the effects of endogenous NO upon platelet rolling in vivo. Anesthetized mice were pre-treated or not with L-NAME, and then transfused with calcein-AM labeled platelets. The mesentery was externalized, superfused with histamine, and intravital microscopy was used to record interactions of fluorescently labeled platelets with mesenteric venules. Platelets were classified as adherent if they were transiently captured by the endothelium and then translocated in a stop-and-go fashion for a minimum of 2 seconds. […]
Measurements of platelet adherence in mice was adapted from Andre et al. (Andre et al., 2000). […] Platelet adherence was expressed as the number of adhering fluorescent cells per square millimeter of venular surface, calculated from the diameter and length of segment viewed.

In test [3] the test system is mice. The test can be described thus: bleeding time in mice after tail amputation (Example 1). The test is classed as in vivo. As to conditions: intravenous; for effect on bleeding time: tail amputated after 45 min. The protocol:
To explore the physiological relevance of NSF regulation of Weibel-Palade body exocytosis, the effect of the NSF inhibitory peptide upon the bleeding time in mice was measured. Anesthetized mice were injected intravenously with saline, TAT-NSF222, or the control peptide TAT-NSF222scr; and after 45 min the distal 5 mm of tail was amputated and the bleeding time measured. […] In fact, 3 of the 6 mice treated with the TAT-NSF222 peptide had bleeding times in excess of 20 min.
Measurement of bleeding time in mice was performed as previously described (Weiss et al., 2002). Mice were anesthetized with an intramuscular injection of ketamine and xylazine, and 5 mm of the distal tip of the tail was amputated. The tail was blotted with filter paper every 5 sec until the paper was no longer stained. If the animals bled for 20 min, the experiment was stopped, and the bleeding time was recorded as 20 min.

Test [4] concerns the target T1, recombinant NSF (Cricetulus griseus, UniProt P18708).
T1 construct: RGS-(His)6 (N); made in house; host or cells: bacteria
The test can be described thus: NSF ATPase assay (coupled colorimetric assay). It is filed as biochemical. The protocol:
The effect of NO upon NSF activity was next explored, since NO inhibits Weibel-Palade body exocytosis, and since NSF regulates Weibel-Palade body exocytosis. The effect of NO upon the ATPase activity of NSF was first examined. DEA-NONOate was added to recombinant NSF, and the ATPase activity of NSF was measured.
(§1) The ATPase activity of NSF was measured by a coupled assay, in which ATP utilization is linked to the pyruvate kinase reaction, which generates pyruvate, which in turn is measured continuously with lactate dehydrogenase (Huang and Hackney, 1994). Recombinant NSF (0.2 μg/μl) was pre-treated with buffer or DEA or DEA-NONOate or NEM for 10 min at 22° C. ATPase reaction buffer (100 mM HEPES buffer, pH 7.0, 100 mM KCl, 10 mM MgCl2, 5 mM CaCl2, 10 mM ATP, 5 mM phosphoenol pyruvate, 50 U lactate dehydrogenase, and 50 U pyruvate kinase) was added to the mixture, followed by 10 μl of NADH (2 mg/ml in 1% sodium bicarbonate). The mixture was incubated for 10 min at 22° C., and the absorbance was measured at 340 nm.
The effect of the TAT-NSF peptide inhibitors upon the ability of NSF to hydrolyze ATP was measured. 10 μM TAT-NSF peptides was added to recombinant NSF, and the hydrolysis of ATP was measured. All 5 TAT-NSF peptides inhibited NSF ATPase activity (FIG. 8A). […] The effects of TAT-NSF81 (SEQ ID NO: 6) upon NSF were further defined. TAT-NSF81 (SEQ ID NO: 6) inhibits NSF ATPase activity in a dose-dependent manner with an IC50% between 1-10 μM (FIG. 8B).
as §1, with “TAT-NSF peptides” for “DEA or DEA-NONOate or NEM”

The target in test [5] is T2, NSF disassembly of the SNARE complex (Cricetulus griseus, UniProt P18708).
T2 construct: made in house; host or cells: bacteria (NSF, alpha-SNAP); BL21 cells (GST-SNAREs)
T2 sequence (P18708 whole entry): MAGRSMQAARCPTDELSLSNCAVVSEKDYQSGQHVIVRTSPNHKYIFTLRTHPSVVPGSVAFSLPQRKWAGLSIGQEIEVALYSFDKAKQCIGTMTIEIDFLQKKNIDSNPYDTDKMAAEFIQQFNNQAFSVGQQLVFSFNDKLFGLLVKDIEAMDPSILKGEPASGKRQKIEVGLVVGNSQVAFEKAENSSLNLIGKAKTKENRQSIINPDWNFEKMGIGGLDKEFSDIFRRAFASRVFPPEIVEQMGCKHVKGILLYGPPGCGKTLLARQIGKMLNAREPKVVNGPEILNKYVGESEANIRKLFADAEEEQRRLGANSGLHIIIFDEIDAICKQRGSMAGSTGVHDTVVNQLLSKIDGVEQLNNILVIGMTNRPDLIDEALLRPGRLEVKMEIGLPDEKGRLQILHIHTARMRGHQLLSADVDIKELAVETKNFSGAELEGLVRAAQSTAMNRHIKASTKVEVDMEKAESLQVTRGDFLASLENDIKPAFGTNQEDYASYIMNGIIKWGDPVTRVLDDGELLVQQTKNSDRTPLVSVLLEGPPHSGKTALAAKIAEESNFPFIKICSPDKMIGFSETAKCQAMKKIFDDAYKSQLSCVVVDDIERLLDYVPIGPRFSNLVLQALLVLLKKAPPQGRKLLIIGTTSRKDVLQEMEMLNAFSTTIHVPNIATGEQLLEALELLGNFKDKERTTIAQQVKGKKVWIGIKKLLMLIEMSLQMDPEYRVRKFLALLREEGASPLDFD
T2 sequence (P81125 whole entry partner): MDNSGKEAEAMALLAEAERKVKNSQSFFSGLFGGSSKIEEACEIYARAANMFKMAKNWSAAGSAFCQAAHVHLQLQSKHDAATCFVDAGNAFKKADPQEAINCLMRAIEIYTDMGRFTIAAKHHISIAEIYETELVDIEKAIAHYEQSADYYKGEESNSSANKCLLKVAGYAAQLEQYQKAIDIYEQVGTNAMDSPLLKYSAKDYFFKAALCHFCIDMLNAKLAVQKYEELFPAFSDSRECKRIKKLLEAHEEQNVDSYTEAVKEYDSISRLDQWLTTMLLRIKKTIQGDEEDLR
T2 sequence (Q12846 whole entry partner): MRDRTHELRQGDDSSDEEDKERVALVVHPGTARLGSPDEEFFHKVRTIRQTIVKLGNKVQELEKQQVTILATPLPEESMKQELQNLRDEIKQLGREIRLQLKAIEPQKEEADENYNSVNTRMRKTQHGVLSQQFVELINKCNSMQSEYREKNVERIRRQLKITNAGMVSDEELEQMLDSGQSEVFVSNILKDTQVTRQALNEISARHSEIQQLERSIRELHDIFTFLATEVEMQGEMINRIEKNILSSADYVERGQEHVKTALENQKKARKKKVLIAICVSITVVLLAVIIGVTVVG
T2 sequence (Q15836 whole entry partner): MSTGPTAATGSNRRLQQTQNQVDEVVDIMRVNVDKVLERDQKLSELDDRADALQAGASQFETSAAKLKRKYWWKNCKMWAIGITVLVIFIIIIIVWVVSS
T2 sequence (O00161 whole entry partner): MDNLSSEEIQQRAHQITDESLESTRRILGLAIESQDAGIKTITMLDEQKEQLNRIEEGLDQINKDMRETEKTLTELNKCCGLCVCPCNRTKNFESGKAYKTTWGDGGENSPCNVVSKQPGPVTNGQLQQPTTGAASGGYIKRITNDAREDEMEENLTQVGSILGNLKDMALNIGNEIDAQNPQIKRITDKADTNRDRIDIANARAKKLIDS
It is filed as biochemical. As to conditions: recombinant NSF, α-SNAP, GST-SNAREs, ATP; TAT-NSF peptides 1 μM in Example 2.
Experimental: Accordingly, recombinant NSF was pre-treated with the NO donor DEA-NONOate 1 mM for 10 min. Pre-treated NSF, α-SNAP, and detergent extracts of HAEC membranes were then mixed in the presence of 0.5 mM ATP or ATP-γS. These reactions were then fractionated by sucrose density gradient ultracentrifugation, fractions were collected from the bottom of the tube, and immunoblotted with antibody to syntaxin-4.
The effect of NO upon NSF disassembly of purified, recombinant SNARE molecules was next examined. Recombinant (His)6-NSF was pre-treated or not with 1 mM DEA-NONOate for 10 min, and then mixed with and (His)6-a-SNAP and recombinant SNARE fusion polypeptides identified in endothelial cells: GST-syntaxin-4, VAMP-3, and SNAP-23. ATP or ATP-γS was added, the mixture was precipitated with glutathione-sepharose beads, and precipitated proteins were fractionated by SDS-PAGE and immunoblotted with antibody to the NSF tag.
The disassembly activity of NSF was measured by a co-precipitation assay (Pevsner et al., 1994). […] This mixture of NSF and SNARE polypeptides was then incubated in binding buffer (4 mM HEPES pH 7.4, 0.1M NaCl, 1 mM EDTA, 3.5 mM CaCl2, 3.5 mM MgCl2, and 0.5% Nonidet P-40) and glutathione-sepharose beads for 1 h at 4° C. with rotation. The beads were washed with binding buffer 4 times, mixed with SDS-PAGE sample buffer, boiled for 3 min, and analyzed by immunoblotting.
The effect of the TAT-NSF peptide inhibitors upon the ability of NSF to separate from SNARE complexes was measured. Recombinant NSF was pre-treated with 1 μM TAT-NSF peptides, and recombinant GST-SNARE polypeptides were then added, including syntaxin-4, SNAP-23, and VAMP-3. […]
The effect of TAT-NSF peptides on NSF disassembly activity was determined. […]
TAT-NSF81 (SEQ ID NO: 6) inhibition of NSF disassembly activity was also investigated. […] ATP was added, GST-SNAREs were precipitated with glutathione-sepharose, and the precipitant was analyzed for the co-precipitation of NSF.
The disassembly activity of NSF was measured by a co-precipitation assay (Pevsner et al., 1994). […]

Test [6] has as its system mice. The test can be described thus: myocardial infarction (coronary ligation/reperfusion) in mice. The test is classed as in vivo. The protocol: The ability of the fusion peptides of the present invention to impact cardiac infraction was investigated. Mice were pre-treated intravenously with vehicle or 5 ug/mouse TAT-NSF700 (SEQ ID NO: 8) peptide 15 min prior to infarction. Myocardial infarctions were created in mice by ligation of the left anterior descending coronary artery. Myocardial ischemia was maintained for 35 minutes, and then the ligation of the coronary artery was released, and reperfusion continued for 24 h.
The mice were then sacrificed and the size of the myocardial infarction was quantitated as previously done (Jones S P, Greer J J, Kakkar A K, Ware P D, Turnage R H, Hicks M, van Haperen R, de Crom R, Kawashima S, Yokoyama M, Lefer D J. Am J Physiol Heart Circ Physiol. 2004 January; 286(1):H276-82. Epub 2003 Sep. 11.). The area at risk (AAR) was measured with Evans blue dye, the left ventricle (LV) area was measured by planimetery, and the infarct area (INF) was measured with TTC staining. There were 7 mice per group.

T1 sequence (P18708 whole entry): as the sequence (P18708 whole entry) above

Regarding `CC(=N)NCc1cccc(CN)c1` [1400W], in test [1], the “effect on thrombin stimulated vWF release” value is “had no effect”.

Take `NCCN(CCN)/[N+]([O-])=N/O` [DETA-NONOate, dithylenetriamine (DETA)-NONOate]: the “effect on thrombin induced vWF release, dose response” value (“effect … dose response” below) in test [1] was “inhibits thrombin induced vWF release”.

For the compound `COC(=O)[C@@H](N)CCCNC(=N)N[N+](=O)[O-]` [L-NAME, L-nitroarginine-methyl-ester], in test [1], the “effect … dose response” value is reported as “increases thrombin stimulated vWF release in a dose-dependent manner” and the “effect on thrombin stimulated vWF release” value is reported as “increases the amount of vWF released”. In addition, the “effect on VEGF inhibition of thrombin stimulated vWF release” value in test [1] (L-NAME 1 mM, VEGF 50 ng/ml 2 h) is on record as “blocks the effects of VEGF treatment”. Further, the “histamine induced platelet interactions with the venule wall, frequency vs non-treated mice” value in test [2] (5 mg/kg L-NAME intravenously, histamine superfusion) was “more than double”. Also, in test [2] (L-NAME pre-treated), the “time of peak platelet-venule interactions after histamine treatment” value turned out to be 6 min.

Take `CCN1C(=O)C=CC1=O` [NEM]: in test [1], the “effect … dose response” value is “inhibits thrombin induced vWF release”.

For “YGRKKRRQRRR-GGG-ENSFRFLADIFPAKAFPVRFE (YGRKKRRQRRRGGGENSFRFLADIFPAKAFPVRFE; fusion peptide) [TAT-NSF222scr]”, the “effect on bleeding time” value in test [3] was “has no effect upon bleeding time”.

For “YGRKKRRQRRR-GGG-GLDKEFNSIFRRAFASRVFPPE (YGRKKRRQRRRGGGGLDKEFNSIFRRAFASRVFPPE; fusion peptide) [TAT-NSF222]”, the “effect of peptide on thrombin induced vWF release” value in test [1] is “inhibits vWF release in a dose-dependent manner”. Further, the “mice with bleeding times in excess of 20 min” value in test [3] (45 min) is 3 of the 6. For the same compound, in test [3], the “effect on bleeding time” value is on record as “dramatically prolongs the bleeding time”. Further, the “effect on NSF ATPase activity” value in test [4] (recombinant NSF) is on record as “inhibits both NSF ATPase activity”. In test [5], the “effect on NSF disassembly activity” value is given as “also NSF disassembly activity”.

On to “YGRKKRRQRRR-GGG-LLDYVPIGPRFSNLVLQALLVL (YGRKKRRQRRRGGGLLDYVPIGPRFSNLVLQALLVL; fusion peptide) [TAT-NSF700]”, for which the “effect of peptide on thrombin induced vWF release” value in test [1] is listed as “most effective at inhibiting release of vWF”. Further, the “effect on NSF ATPase activity at 10 μM peptide” value in test [4] (10 μM TAT-NSF peptides, recombinant NSF) was “more effective than the other peptides”. Besides, the “size of the infarct” value in test [6] (mice, 5 ug/mouse i.v. 15 min prior to infarction, 35 min ischemia, 24 h reperfusion) is 44%+/−3. Also, in test [6] (vs vehicle treated mice), the “absolute reduction in infarct size” value is listed as 12% and the “relative reduction in infarct size” value was found to be 21%.

Usually IC50 stands for the concentration that gives 50% inhibition. In the case of “YGRKKRRQRRRGGGALYSFDKAKQCIGTMTIEID [TAT-NSF81]”, the IC50 lay within 1 to 10 µM in test [1] (read-out: IC50% for inhibition of endothelial exocytosis (vWF release), HAEC, 20 min pre-treatment, thrombin 1 U/ml) and 1 to 10 µM in test [4].

For “vascular endothelial growth factor [VEGF]”, in test [1], the “effect on thrombin stimulated vWF release” value is reported as “decreases thrombin stimulated vWF release”.
